Earlier results, collected in patent US20150182574A1, “COMPOSITIONS AND METHODS FOR ENHANCING MOBILIZATION AND PROLIFERATION OF BLASTOMERE-LIKE STEM CELLS” (Stemtech International, Inc., priority 2012, published 2015).

How the values were obtained:
[1] = temperature and pH dependent
[2] = tested on: HSCs; conditions: intravenous injection
[3] = tested on: VSELs; conditions: in vivo

OC[C@H]1O[C@@H](Oc2c(O)cc(O)cc2C=Cc2ccc(O)cc2)[C@H](O)[C@@H](O)[C@@H]1O [2,3,5,4′-tetrahydroxystilbene-2-O-β-d-glycoside]
stability in aqueous solutions [1]: readily degrade in aqueous solutions

Fucoidan
egress of HSCs from bone marrow into the peripheral blood stream [2]: promote the egress of HSCs

B1: G-CSF: granulocyte colony-stimulating factor, mobilization agent (protein, UniProt P09919 31-207, looked up)
Granulocyte …: TPLGPASSLPQSFLLKCLEQVRKIQGDGAALQEKLVSECATYKLCHPEELVLLGHSLGIPWAPLSSCPSQALQLAGCLSQLHSGLFLYQGLLQALEGISPELGPTLDTLQLDVADFATTIWQQMEELGMAPALQPTQGAMPAFASAFQRRAGGVLVASHLQSFLEVSYRVLRHLAQP
numbers of VSELs in peripheral blood [3]: increase numbers of VSELs in peripheral blood
